Experimental data taken from the supplement of paper PMC10307832.

Tests used:
Experiment in all cases: relative viability (nuclei count vs DMSO), 5 days (fraction); higher = more cells survive
[1] = compound: C1=CC=C2C(=C1)N=C(S2)C(C#N)C3=NC(=NC=C3)NCCC4=CN=CC=C4 + N=C(N)NC(=N)NCCc1ccccc1 [Phenformin] (partner 250 µM)
In short: (§1)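 Values are medians from duplicate plates. Each reflects relative viability, defined as the nuclei count of treated wells over that of vehicle wells. Lung cancer cell lines in 1536-well plates were pin-tool dosed one day after seeding with one drug alone or with a fixed anchor-drug dose plus five library-drug doses (not always all listed) in √10 steps, then fixed, stained and imaged at 4× after 5 days.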

NVP-TAE684 + Alpelisib = compound: COc1cc(N2CCC(N3CCN(C)CC3)CC2)ccc1Nc1ncc(Cl)c(Nc2ccccc2S(=O)(=O)C(C)C)n1 [NVP-TAE684] + Cc1nc(NC(=O)N2CCC[C@H]2C(N)=O)sc1-c1ccnc(C(C)(C)C(F)(F)F)c1 [Alpelisib] (partner 2 µM)
In short: as §1

Vandetanib + Dasatinib = compound: COc1cc2/c(=N/c3ccc(Br)cc3F)nc[nH]c2cc1OCC1CCN(C)CC1 [Vandetanib] + Cc1nc(Nc2ncc(C(=O)Nc3c(C)cccc3Cl)s2)cc(N2CCN(CCO)CC2)n1 [Dasatinib] (partner 0.075 µM)
In short: as §1

Vandetanib + AZD7762 = compound: COc1cc2/c(=N/c3ccc(Br)cc3F)nc[nH]c2cc1OCC1CCN(C)CC1 [Vandetanib] + NC(=O)Nc1cc(-c2cccc(F)c2)sc1C(=O)N[C@H]1CCCNC1 [AZD7762] (partner 0.2 µM)
In short: as §1

Cell Line | relative viability ([1]; first compound 0.005 µM) | relative viability ([1]; first compound 0.01581 µM) | relative viability ([1]; first compound 0.05 µM) | relative viability ([1]; first compound 0.1581 µM) | relative viability ([1]; first compound 0.5 µM) | relative viability (NVP-TAE684 + Alpelisib; first compound 0.2 µM) | relative viability (NVP-TAE684 + Alpelisib; first compound 0.6325 µM) | relative viability (NVP-TAE684 + Alpelisib; first compound 2 µM) | relative viability (Vandetanib + Dasatinib; first compound 0.02 µM) | relative viability (Vandetanib + Dasatinib; first compound 0.06325 µM) | relative viability (Vandetanib + Dasatinib; first compound 0.2 µM) | relative viability (Vandetanib + Dasatinib; first compound 0.6325 µM) | relative viability (Vandetanib + Dasatinib; first compound 2 µM) | relative viability (Vandetanib + AZD7762; first compound 0.02 µM) | relative viability (Vandetanib + AZD7762; first compound 0.06325 µM) | relative viability (Vandetanib + AZD7762; first compound 0.2 µM) | relative viability (Vandetanib + AZD7762; first compound 0.6325 µM) | relative viability (Vandetanib + AZD7762; first compound 2 µM)
201T | 0.415 | 0.425 | 0.423 | 0.504 | 0.346 | 0.976 | 1.05 | 0.839 | 0.573 | 0.527 | 0.578 | 0.589 | 0.575 | 0.675 | 0.62 | 0.626 | 0.588 | 0.614
A549 | 0.254 | – | 0.146 | 0.246 | 0.212 | 0.823 | 0.58 | 0.253 | – | – | – | – | – | – | – | – | – | –
A-427 | 0.252 | 0.34 | 0.367 | 0.322 | 0.288 | 1.12 | – | 0.899 | 0.721 | 0.697 | 0.638 | 0.704 | 0.702 | 0.684 | 0.674 | 0.719 | 0.62 | 0.61
ABC-1 | 0.245 | 0.22 | 0.241 | 0.219 | 0.251 | 1.07 | – | 0.537 | 0.423 | 0.547 | 0.605 | 0.614 | 0.367 | 0.871 | 0.901 | – | 0.726 | 0.773
BEN | 0.243 | 0.28 | 0.286 | 0.304 | 0.46 | – | 0.955 | 1.02 | 0.309 | 0.331 | 0.271 | 0.286 | 0.288 | 0.69 | 0.622 | 0.585 | 0.633 | 0.661
CAL-12T | 0.539 | 0.433 | 0.584 | 0.619 | 0.485 | 1.24 | 1.38 | 0.535 | 0.426 | 0.407 | 0.387 | 0.29 | 0.32 | 0.676 | 0.611 | 0.631 | 0.643 | 0.574
COR-L23 | 0.355 | 0.49 | 0.467 | 0.465 | 0.377 | 0.762 | 0.517 | 0.237 | 0.485 | 0.438 | 0.462 | 0.446 | 0.564 | – | – | – | – | –
COR-L 105 | 0.322 | 0.487 | 0.582 | 0.525 | 0.411 | 0.852 | 0.926 | 0.538 | 0.337 | 0.322 | 0.271 | 0.281 | 0.184 | – | – | – | – | –
Calu-6 | – | – | – | – | – | 0.854 | 0.912 | 0.517 | – | – | – | – | – | – | – | – | – | –
ChaGo-K-1 | – | 0.373 | 0.48 | 0.54 | 0.536 | – | – | – | 0.581 | 0.63 | 0.269 | 0.584 | 0.607 | 0.878 | 0.886 | 0.893 | 0.816 | 0.896
EBC-1 | – | – | – | – | – | 0.772 | 0.824 | 0.559 | – | – | – | – | – | – | – | – | – | –
EKVX | 0.245 | 0.239 | 0.243 | 0.273 | 0.23 | 0.936 | 0.781 | 0.63 | 0.547 | 0.566 | 0.498 | 0.602 | 0.374 | 0.693 | 0.692 | 0.611 | 0.694 | 0.547
